Measured values published in US9540338B2, “Substituted cinnamic acid amides for treating pain” (NIPPON ZOKI PHARMACEUTICAL CO., LTD., priority 2012, dated 2017).
Counter-ions that a name gives are not always drawn. Marks after values point to notes of the source that are not given here.

Columns and labels:
Chung model rat = experiment: Analgesic efficacy test (2): Chung model rat, neuropathic pain model (allodynia, von Frey filament); assay type: in vivo, rats; conditions: mean ± standard error
Experimental: An analgesic efficacy test was conducted using a Chung model rat, a neuropathic pain model. Nine-week old Wistar male rats were previously bred as an experimental animal, and a model rat was then prepared in accordance with the method of Kim and Chung (Pain, 50, 355-363, 1992). Specifically, left L5 spinal nerves of rats were exposed under anesthetization with pentobarbital (40 mg/kg, intraperitoneal administration), and firmly ligated with 5-0 silk yarn at L5 dorsal root ganglion peripheral side. The animals were placed in a transparent acrylic cage of which bottom was wire netted The measurement of allodynia was carried out using von Frey filament (manufactured by North Coast Medical Inc.) and a 50% reaction threshold was calculated according to an up-down method, in accordance with a method of Chaplan et al. (J. Neurosci. Method, 53, 55-63, 1994). The 50% reaction thresholds were measured twice before injury of the spinal nerve, and those animals of which thresholds were outside the standard were removed from the operation of spinal nerve injury. On or after 14 days from the spinal nerve injury, a 50% reaction threshold was measured, and those showing thresholds of 1 g or more and less than 4 g were used as experimental animal. The group was constituted by 7 or 8 rats per group so that an average of a 50% reaction threshold for each group would be nearly even.
A solution or suspension prepared by dissolving or suspending a compound of the present invention in a 0.5% (w/v) aqueous CMC-Na solution was orally administered as a test substance in a single dose. Also, a 0.5% (w/v) aqueous CMC-Na solution was administered in the same manner to the control group for nerve injury. The measurements of allodynia were carried out with the passage of time after administration, and a 50% reaction threshold (mean±standard error) of each group at action peak was calculated. In the test for significance difference, Bartlett's test was carried out in the comparison between multiple groups of the group administered with test substance with the control group for nerve injury. In the case of homoscedasticity, Dunnett's multiple comparison test of parametrics, and in the case of heteroscedasticity, Dunnett's multiple comparison test of non-parametrics were used. In all cases, significance difference was considered to be found at P<0.05 (indicated as “*” in the tables).

ddY-type mice = experiment: Analgesic efficacy test (1): acetic acid writhing test; assay type: in vivo; conditions: Mus musculus, writhing number, mean ± standard error, 8 mice per group, read-out: Suppressive Rate; for inhibition in vivo at 10 mg/kg: oral single dose 10 mg/kg; for inhibition in vivo at 100 mg/kg: oral single dose 100 mg/kg
Text: A compound of the present invention was orally administered to mice, to carry out an analgesic efficacy test according to acetic acid writhing test. As an experimental animal, 4-week old male ddY-type mice were previously bred, and thereafter 8 mice per one group were used in the experiment. A solution or suspension prepared by dissolving or suspending a compound of the present invention in a 0.5% (w/v) aqueous CMC-Na solution was orally administered as a test substance in a single dose. While, to a control group, a 0.5% (w/v) aqueous CMC-Na solution was administered in the same manner After 25 minutes from administration, the mice were intraperitoneally administered with a 0.7% (v/v) acetic acid/physiological saline at the dose of 10 mL/kg. From 5 minutes thereafter, writhing number in a 10-minute period was counted, and a suppressive rate for each individual (mean±standard error) was calculated by the following formula: […]
In the test for significance difference, Bartlett's test was carried out in the comparison between multiple groups of the group administered with test substance with the control group. In the case of homoscedasticity, Dunnett's multiple comparison test of parametrics, and in the case of heteroscedasticity, Dunnett's multiple comparison test of non-parametrics were used. In addition, in the test of dose dependency, Jonckheere-Terpstra's test was used. In all cases, significance difference was considered to be found at P<0.05 (indicated as “*” in the table).

[1] = oral 1 mg/kg, measurement point 90 minute (action peak)
[2] = oral 10 mg/kg, measurement point 90 minute (action peak)
[3] = oral 1 mg/kg, measurement point 60 minute (action peak)
[4] = oral 10 mg/kg, measurement point 60 minute (action peak)
[5] = oral 1 mg/kg, measurement point 30 minute (action peak)
[6] = oral 10 mg/kg, measurement point 30 minute (action peak)

Row | SMILES | 50% Reaction Threshold, Group Administered with Test Substance, After Administration (Chung model rat; [1]) | 50% Reaction Threshold, Group Administered with Test Substance, After Administration (Chung model rat; [2]) | 50% Reaction Threshold, Group Administered with Test Substance, After Administration (Chung model rat; [3]) | 50% Reaction Threshold, Group Administered with Test Substance, After Administration (Chung model rat; [4]) | melting point | other results
1 | O=C(/C=C/c1ccccc1F)NCCc1c[nH]c2ccccc12 [Compound 1, (E)-3-(2-Fluorophenyl)-N-[2-(1H-indol-3-yl)ethyl]-2-propenamide] | 6.71 ± 1.33 g | 14.06 ± 0.61* g | – | – | – | inhibition in vivo at 10 mg/kg (ddY-type mice): 46.9 ± 7.6%; inhibition in vivo at 100 mg/kg (ddY-type mice): 62.7 ± 6%
2 | CN1CCN(CCCNC(=O)/C=C/c2ccccc2F)CC1 [Compound 15, (E)-3-(2-Fluorophenyl)-N-[3-(4-methylpiperazin-1-yl)propyl]-2-propenamide dihydrochloride] | 7.45 ± 1.95* g | 7.43 ± 1.63* g | – | – | – | inhibition in vivo at 10 mg/kg (ddY-type mice): 24.3 ± 12.7%; inhibition in vivo at 100 mg/kg (ddY-type mice): 44.1 ± 6.6%
3 | O=C(/C=C/c1cc(F)ccc1F)NCCCN1CCOCC1 [Compound 29, (E)-3-(2,5-Difluorophenyl)-N-(3-morpholinopropyl)-2-propenamide] | – | – | 5.10 ± 0.42 g | 10.51 ± 1.15* g | 71 to 72 °C | –
4 | O=C(/C=C/c1ccc(F)cc1)Nc1ccc(N2CCOCC2)cc1 [Compound 33, (E)-3-(4-Fluorophenyl)-N-[4-morpholinophenyl]-2-propenamide] | – | – | 8.93 ± 1.46* g | 9.35 ± 2.10* g | 223 to 224 °C | –
5 | O=C(/C=C/c1ccccc1F)NCCn1cccn1 [Compound 38, (E)-3-(2-Fluorophenyl)-N-[2-(pyrazol-1-yl)ethyl]-2-propenamide] | 2.74 ± 0.23 g | 4.06 ± 0.52* g | – | – | 124 to 126 °C | –
6 | O=C(/C=C/c1ccccc1F)NCCn1ccnn1 [Compound 40, (E)-3-(2-Fluorophenyl)-N-[2-([1,2,3]triazol-1-yl)ethyl]-2-propenamide] | – | – | 3.61 ± 0.41 g | 5.86 ± 1.17* g | 110 to 112 °C | –
7 | Cc1nccn1CCNC(=O)/C=C/c1ccccc1F [Compound 42, (E)-3-(2-Fluorophenyl)-N-[2-(2-methylimidazol-1-yl)ethyl]-2-propenamide] | – | – | – | – | 127 to 129 °C | 50% Reaction Threshold, Group Administered with Test Substance, After Administration (Chung model rat; [5]): 2.60 ± 0.32 g; 50% Reaction Threshold, Group Administered with Test Substance, After Administration (Chung model rat; [6]): 4.24 ± 0.35* g
8 | C/C(=C\c1ccc(F)cc1)C(=O)NCCCN1CCOCC1 [Compound 46, (E)-3-(4-Fluorophenyl)-2-methyl-N-(3-morpholinopropyl)-2-propenamide] | – | – | – | – | 78 to 79 °C | 50% Reaction Threshold, Group Administered with Test Substance, After Administration (Chung model rat; [5]): 7.51 ± 1.60* g; 50% Reaction Threshold, Group Administered with Test Substance, After Administration (Chung model rat; [6]): 8.70 ± 1.43* g
9 | O=C(/C=C/c1ccccc1F)Nc1cccc(-c2ccno2)c1 [Compound 54, (E)-3-(2-Fluorophenyl)-N-[3-(isoxazol-5-yl)phenyl]-2-propenamide] | – | – | – | – | 185 to 187 °C | 50% Reaction Threshold, Group Administered with Test Substance, After Administration (Chung model rat; [5]): 5.18 ± 0.81 g; 50% Reaction Threshold, Group Administered with Test Substance, After Administration (Chung model rat; [6]): 11.20 ± 1.19* g
10 | O=C(/C=C/c1ccc(F)cc1)NCCCN1CCSCC1 [Compound 60, (E)-3-(4-Fluorophenyl)-N-(3-thiomorpholinopropyl)-2-propenamide] | – | – | – | – | 121 to 122 °C | 50% Reaction Threshold, Group Administered with Test Substance, After Administration (Chung model rat; [5]): 4.03 ± 0.54 g; 50% Reaction Threshold, Group Administered with Test Substance, After Administration (Chung model rat; [6]): 8.45 ± 1.01* g
11 | Cl.O=C(/C=C/c1ccccc1F)NCCCN1CCSCC1 [Compound 61, (E)-3-(2-Fluorophenyl)-N-(3-thiomorpholinopropyl)-2-propenamide hydrochloride] | – | – | 10.64 ± 1.38* g | 11.81 ± 1.47* g | 178 to 179 °C | –
12 | Cl.O=C(/C=C/c1ccccc1F)NCCCN1CCS(=O)(=O)CC1 [Compound 62, (E)-N-[3-(1,1-Dioxo-1,4-thiazinan-4-yl)propyl]-3-(2-fluorophenyl)-2-propenamide hydrochloride] | 6.17 ± 1.33 g | 9.22 ± 1.28* g | – | – | 252 to 253 °C | –
13 | Cl.O=C(/C=C/c1ccc(F)cc1)NCCCN1CCS(=O)(=O)CC1 [Compound 63, (E)-N-[3-(1,1-Dioxo-1,4-thiazinan-4-yl)propyl]-3-(4-fluorophenyl)-2-propenamide hydrochloride] | 3.60 ± 0.35 g | 6.74 ± 0.62* g | – | – | 247 to 248 °C | –
14 | Cl.N=C(N)NCCCCNC(=O)/C=C/c1ccccc1F [Compound 65, (E)-3-(2-Fluorophenyl)-N-(4-guanidinobutyl)-2-propenamide hydrochloride] | – | – | 5.01 ± 0.52* g | 5.24 ± 0.47* g | 154 to 156 °C | –
15 | O=C(/C=C/c1ccc(F)cc1)NCCCN1CC[S+]([O-])CC1 [Compound 67, (E)-3-(4-Fluorophenyl)-N-[3-(1-oxo-1,4-thiazinan-4-yl)propyl]-2-propenamide] | – | – | 10.63 ± 1.23* g | 10.71 ± 2.13* g | 130 to 131 °C | –
16 | Cl.O=C(/C=C/c1ccccc1F)NCCCN1CC[S+]([O-])CC1 [Compound 68, (E)-3-(2-Fluorophenyl)-N-[3-(1-oxo-1,4-thiazinan-4-yl)propyl]-2-propenamide hydrochloride] | 9.04 ± 1.17* g | 11.25 ± 0.94* g | – | – | 182 to 183 °C | –
17 | O=C(/C=C/c1ccccc1F)NCc1cccc(N2CCSCC2)c1 [Compound 69, (E)-3-(2-Fluorophenyl)-N-[(3-thiomorpholinophenyl)methyl]-2-propenamide] | – | – | 3.68 ± 0.40* g | 4.35 ± 0.51* g | 154 to 155 °C | –
18 | O=C(/C=C/c1ccccc1F)NCc1cccc(N2CC[S+]([O-])CC2)c1 [Compound 70, (E)-3-(2-Fluorophenyl)-N-{[3-(oxo-1,4-thiazinan-4-yl)phenyl]methyl}-2-propenamide] | – | – | 4.09 ± 0.34* g | 3.41 ± 0.31* g | 156 to 157 °C | –
